Laboratory results published in patent US20230139445A1, “BACTERIAL CELLS WITH IMPROVED TOLERANCE TO DIACIDS” (priority 2016, published 2023).

Test system: Escherichia coli K-12 MG1655 evolved isolates and knockout mutants
Test: Biolector growth screening of evolved isolates and reconstructed (knockout) mutants in glutaric or adipic acid
Format: cell-based
Description: Biological triplicate cultures of each strain were grown to saturation overnight in 96 well deepwell plates containing 300 μL M9+1% glucose. The next day, cells were diluted 1:10 in deionized water in a clear 96 well plate and the OD600 was measured on a BioTek plate reader. 48 well FlowerPlates containing a final volume of 1.4 mL of M9+1/o glucose (plus relevant chemical) were inoculated to OD600 0.03 (with plate reader pathlength, 200 μL volume) with the overnight culture and sealed with Breathseal film. Light backscatter intensity was monitored in a Biolector microbioreactor system at 37° C. with 1000 rpm shaking.
Each re-sequenced isolate was characterized using the Biolector system for growth at the screening concentration of chemical (47.5 g/L glutaric acid or 50 g/L adipic acid) in biological triplicates.

[1] = strain GLUT1-3, M9 + 47.5 g/L glutaric acid (neutralized with sodium hydroxide)
[2] = strain GLUT1-3, M9 + 47.5 g/L glutaric acid (neutralized), knockout experiment (Table 14)
[3] = strain GLUT1-9, M9 + 47.5 g/L glutaric acid (neutralized with sodium hydroxide)
[4] = strain GLUT1-10, M9 + 47.5 g/L glutaric acid (neutralized with sodium hydroxide)
[5] = strain GLUT1-10, M9 + 47.5 g/L glutaric acid (neutralized), knockout experiment (Table 14)
[6] = strain GLUT2-1, M9 + 47.5 g/L glutaric acid (neutralized with sodium hydroxide)
[7] = strain GLUT2-9, M9 + 47.5 g/L glutaric acid (neutralized with sodium hydroxide)
[8] = strain GLUT2-10, M9 + 47.5 g/L glutaric acid (neutralized with sodium hydroxide)
[9] = strain GLUT3-5, M9 + 47.5 g/L glutaric acid (neutralized with sodium hydroxide)
[10] = strain GLUT3-7, M9 + 47.5 g/L glutaric acid (neutralized with sodium hydroxide)
[11] = strain GLUT3-9, M9 + 47.5 g/L glutaric acid (neutralized with sodium hydroxide)
[12] = strain GLUT4-1, M9 + 47.5 g/L glutaric acid (neutralized with sodium hydroxide)
[13] = strain GLUT4-1, M9 + 47.5 g/L glutaric acid (neutralized), knockout experiment (Table 14)
[14] = strain GLUT4-4, M9 + 47.5 g/L glutaric acid (neutralized with sodium hydroxide)
[15] = strain GLUT4-10, M9 + 47.5 g/L glutaric acid (neutralized with sodium hydroxide)
[16] = strain GLUT5-4, M9 + 47.5 g/L glutaric acid (neutralized with sodium hydroxide)
[17] = strain GLUT5-5, M9 + 47.5 g/L glutaric acid (neutralized with sodium hydroxide)
[18] = strain GLUT6-4, M9 + 47.5 g/L glutaric acid (neutralized with sodium hydroxide)
[19] = strain GLUT6-5, M9 + 47.5 g/L glutaric acid (neutralized with sodium hydroxide)
[20] = strain GLUT6-10, M9 + 47.5 g/L glutaric acid (neutralized with sodium hydroxide)
[21] = strain GLUT7-2, M9 + 47.5 g/L glutaric acid (neutralized with sodium hydroxide)
[22] = strain GLUT7-6, M9 + 47.5 g/L glutaric acid (neutralized with sodium hydroxide)
[23] = strain GLUT7-7, M9 + 47.5 g/L glutaric acid (neutralized with sodium hydroxide)
[24] = strain GLUT8-5, M9 + 47.5 g/L glutaric acid (neutralized with sodium hydroxide)
[25] = strain GLUT8-6, M9 + 47.5 g/L glutaric acid (neutralized with sodium hydroxide)
[26] = strain GLUT8-6, M9 + 47.5 g/L glutaric acid (neutralized), knockout experiment (Table 14)
[27] = strain GLUT8-9, M9 + 47.5 g/L glutaric acid (neutralized with sodium hydroxide)
[28] = strain MG1655, M9 + 47.5 g/L glutaric acid (neutralized with sodium hydroxide)
[29] = strain MG1655, M9 + 47.5 g/L glutaric acid (neutralized), knockout experiment (Table 14)
[30] = strain MG1655 kgtP::kan, M9 + 47.5 g/L glutaric acid (neutralized)
[31] = strain MG1655 proV::kan, M9 + 47.5 g/L glutaric acid (neutralized)
[32] = strain MG1655 ybjL::kan, M9 + 47.5 g/L glutaric acid (neutralized)
[33] = strain MG1655 ΔkgtP proV::kan, M9 + 47.5 g/L glutaric acid (neutralized)
[34] = strain MG1655 ΔkgtP sspA::kan, M9 + 47.5 g/L glutaric acid (neutralized)
[35] = strain MG1655 ΔkgtP ybjL::kan, M9 + 47.5 g/L glutaric acid (neutralized)
[36] = strain MG1655 ΔkgtP ΔproV ybjL::kan, M9 + 47.5 g/L glutaric acid (neutralized)
[37] = strain ADIP1-1, M9 + 50 g/L adipic acid (neutralized with sodium hydroxide)
[38] = strain ADIP1-9, M9 + 50 g/L adipic acid (neutralized with sodium hydroxide)
[39] = strain ADIP2-5, M9 + 50 g/L adipic acid (neutralized with sodium hydroxide)
[40] = strain ADIP2-6, M9 + 50 g/L adipic acid (neutralized with sodium hydroxide)
[41] = strain ADIP2-10, M9 + 50 g/L adipic acid (neutralized with sodium hydroxide)
[42] = strain ADIP3-2, M9 + 50 g/L adipic acid (neutralized with sodium hydroxide)
[43] = strain ADIP3-4, M9 + 50 g/L adipic acid (neutralized with sodium hydroxide)
[44] = strain ADIP3-8, M9 + 50 g/L adipic acid (neutralized with sodium hydroxide)
[45] = strain ADIP4-8, M9 + 50 g/L adipic acid (neutralized with sodium hydroxide)
[46] = strain ADIP5-2, M9 + 50 g/L adipic acid (neutralized with sodium hydroxide)
[47] = strain ADIP5-6, M9 + 50 g/L adipic acid (neutralized with sodium hydroxide)
[48] = strain ADIP6-3, M9 + 50 g/L adipic acid (neutralized with sodium hydroxide)
[49] = strain ADIP6-9, M9 + 50 g/L adipic acid (neutralized with sodium hydroxide)
[50] = strain ADIP6-10, M9 + 50 g/L adipic acid (neutralized with sodium hydroxide)
[51] = strain ADIP7-2, M9 + 50 g/L adipic acid (neutralized with sodium hydroxide)
[52] = strain ADIP7-5, M9 + 50 g/L adipic acid (neutralized with sodium hydroxide)
[53] = strain ADIP8-3, M9 + 50 g/L adipic acid (neutralized with sodium hydroxide)
[54] = strain ADIP8-7, M9 + 50 g/L adipic acid (neutralized with sodium hydroxide)
[55] = strain ADIP8-10, M9 + 50 g/L adipic acid (neutralized with sodium hydroxide)
[56] = strain MG1655-1, M9 + 50 g/L adipic acid (neutralized with sodium hydroxide)

## O=C(O)CCCC(=O)O [glutaric acid]
[1]
  mean growth rate μ: 0.304 h⁻¹
  mean lag time tlag: 5.1 h
[2]
  mean growth rate μ: 0.278 h⁻¹
  mean lag time tlag: 4.6 h
[3]
  mean growth rate μ: 0.319 h⁻¹
  mean lag time tlag: 6.4 h
[4]
  mean growth rate μ: 0.458 h⁻¹
  mean lag time tlag: 11.3 h
[5]
  mean growth rate μ: 0.442 h⁻¹
  mean lag time tlag: 10.8 h
[6]
  mean growth rate μ: 0.276 h⁻¹
  mean lag time tlag: 6.8 h
[7]
  mean growth rate μ: 0.298 h⁻¹
  mean lag time tlag: 6.5 h
[8]
  mean growth rate μ: 0.378 h⁻¹
  mean lag time tlag: 6.5 h
[9]
  mean growth rate μ: 0.284 h⁻¹
  mean lag time tlag: 5.6 h
[10]
  mean growth rate μ: 0.277 h⁻¹
  mean lag time tlag: 5.6 h
[11]
  mean growth rate μ: 0.324 h⁻¹
  mean lag time tlag: 8.3 h
[12]
  mean growth rate μ: 0.279 h⁻¹
  mean lag time tlag: 6.2 h
[13]
  mean growth rate μ: 0.312 h⁻¹
  mean lag time tlag: 7.1 h
[14]
  mean growth rate μ: 0.287 h⁻¹
  mean lag time tlag: 6.6 h
[15]
  mean growth rate μ: 0.297 h⁻¹
  mean lag time tlag: 6.9 h
[16]
  mean growth rate μ: 0.438 h⁻¹
  mean lag time tlag: 17.0 h
[17]
  mean growth rate μ: 0.349 h⁻¹
  mean lag time tlag: 14.5 h
[18]
  mean growth rate μ: 0.277 h⁻¹
  mean lag time tlag: 5.9 h
[19]
  mean growth rate μ: 0.300 h⁻¹
  mean lag time tlag: 6.5 h
[20]
  mean growth rate μ: 0.341 h⁻¹
  mean lag time tlag: 6.7 h
[21]
  mean growth rate μ: 0.318 h⁻¹
  mean lag time tlag: 6.6 h
[22]
  mean growth rate μ: 0.318 h⁻¹
  mean lag time tlag: 7.1 h
[23]
  mean growth rate μ: 0.283 h⁻¹
  mean lag time tlag: 7.8 h
[24]
  mean growth rate μ: 0.322 h⁻¹
  mean lag time tlag: 6.2 h
[25]
  mean growth rate μ: 0.347 h⁻¹
  mean lag time tlag: 7.1 h
[26]
  mean growth rate μ: 0.402 h⁻¹
  mean lag time tlag: 7.8 h
[27]
  mean growth rate μ: 0.345 h⁻¹
  mean lag time tlag: 7.4 h
[28]
  mean growth rate μ: 0.103 h⁻¹
  mean lag time tlag: 10.7 h
[29]
  mean growth rate μ: 0.100 h⁻¹
  mean lag time tlag: 10.4 h
[30]
  mean growth rate μ: 0.181 h⁻¹
  mean lag time tlag: 5.8 h
[31]
  mean growth rate μ: 0.085 h⁻¹
  mean lag time tlag: 0.6 h
[32]
  mean growth rate μ: 0.126 h⁻¹
  mean lag time tlag: 12.8 h
[33]
  mean growth rate μ: 0.244 h⁻¹
  mean lag time tlag: 6.5 h
[34]
  mean growth rate μ: 0.256 h⁻¹
  mean lag time tlag: 5.7 h
[35]
  mean growth rate μ: 0.213 h⁻¹
  mean lag time tlag: 6.0 h
[36]
  mean growth rate μ: 0.300 h⁻¹
  mean lag time tlag: 7.0 h

## O=C(O)CCCCC(=O)O [adipic acid]
[37]
  mean growth rate μ: 0.315 h⁻¹
  mean lag time tlag: 16.6 h
[38]
  mean growth rate μ: 0.274 h⁻¹
  mean lag time tlag: 5.8 h
[39]
  mean growth rate μ: 0.332 h⁻¹
  mean lag time tlag: 20.1 h
[40]
  mean growth rate μ: 0.337 h⁻¹
  mean lag time tlag: 22.1 h
[41]
  mean growth rate μ: 0.326 h⁻¹
  mean lag time tlag: 20.8 h
[42]
  mean growth rate μ: 0.295 h⁻¹
  mean lag time tlag: 16.6 h
[43]
  mean growth rate μ: 0.305 h⁻¹
  mean lag time tlag: 23.3 h
[44]
  mean growth rate μ: 0.295 h⁻¹
  mean lag time tlag: 20.1 h
[45]
  mean growth rate μ: 0.332 h⁻¹
  mean lag time tlag: 6.8 h
[46]
  mean growth rate μ: 0.401 h⁻¹
  mean lag time tlag: 4.7 h
[47]
  mean growth rate μ: 0.370 h⁻¹
  mean lag time tlag: 14.4 h
[48]
  mean growth rate μ: 0.280 h⁻¹
  mean lag time tlag: 6.5 h
[49]
  mean growth rate μ: 0.279 h⁻¹
  mean lag time tlag: 6.8 h
[50]
  mean growth rate μ: 0.284 h⁻¹
  mean lag time tlag: 7.1 h
[51]
  mean growth rate μ: 0.189 h⁻¹
  mean lag time tlag: 7.6 h
[52]
  mean growth rate μ: 0.292 h⁻¹
  mean lag time tlag: 19.3 h
[53]
  mean growth rate μ: 0.201 h⁻¹
  mean lag time tlag: 6.0 h
[54]
  mean growth rate μ: 0.206 h⁻¹
  mean lag time tlag: 7.2 h
[55]
  mean growth rate μ: 0.200 h⁻¹
  mean lag time tlag: 6.8 h
[56]
  mean growth rate μ: 0.133 h⁻¹
  mean lag time tlag: 21.4 h
